Experimental data: patent US10543198B2 (Celgene Quanticel Research, Inc., priority 2014, dated 2020)
pIC50: −log10 of the molar value.

What follows are molecules tested against full-length human LSD1 (Homo sapiens (Human), UniProt O60341) (assay: In Vitro Enzyme Inhibition Assay - LSD-1 (TR-FRET)). Conditions: 0.1 nM LSD1, H3K4me1-biotin peptide.
Format: biochemical
Description: This assay determines the ability of a test compound to inhibit LSD1 demethylase activity.
The enzymatic assay of LSD1 activity is based on Time Resolved-Fluorescence Resonance Energy Transfer (TR-FRET) detection.
The ability of the compounds disclosed herein to inhibit LSD1 activity was quantified and the respective IC50 value was determined.
With `Cc1ccc(-c2cc(NC[C@@H]3CCNC3)nn2-c2ccc(C#N)cc2)cc1` [Example 45, 4-[5-(4-methylphenyl)-3-[[(3R)-pyrrolidin-3-yl]methylamino]pyrazol-1-yl]benzonitrile] the pIC50 was > 7.00. For `N#Cc1ccc(-c2cc3c(ccn3C[C@H]3CNCCO3)nc2-c2ccc(F)cc2)cc1` [Example 11, 4-[5-(4-fluorophenyl)-1-[[(2R)-morpholin-2-yl]methyl]pyrrolo[3,2-b]pyridin-6-yl]benzonitrile], the pIC50 was > 7.00. With `Cc1ccc(-c2cc(NC[C@H]3CCNC3)nn2-c2ccc(C#N)cc2)cc1` [Example 44, 4-[5-(4-methylphenyl)-3-[[(3S)-pyrrolidin-3-yl]methylamino]pyrazol-1-yl]benzonitrile] the pIC50 was > 7.00. With `Cc1ccc(-c2nc3ccn(C[C@H]4CNCCO4)c3cc2-c2ccc(C#N)cc2)cc1` [Example 10, 4-[5-(4-methylphenyl)-1-[[(2R)-morpholin-2-yl]methyl]pyrrolo[3,2-b]pyridin-6-yl]benzonitrile] the pIC50 was > 7.00. With `Cc1ccc(-c2cnc(NCC3CCNCC3)nc2-c2ccc(C#N)cc2)cc1` [Example 32, 4-[5-(4-methylphenyl)-2-[(piperidin-4-ylmethyl)amino]pyrimidin-4-yl]benzonitrile] the pIC50 was > 7.00. In the case of `Cc1ccc(-c2cnc(N3CC[C@@H]4CNC[C@@H]4CC3)nc2-c2ccc(C#N)cc2)cc1` [Example 23, 4-{2-[(3aR,8aS)-decahydropyrrolo[3,4-d]azepin-6-yl]-5-(4-methylphenyl)pyrimidin-4-yl}benzonitrile], the pIC50 was > 7.00. With `N#Cc1ccc(-c2nc(N3CC[C@@H]4CNC[C@@H]4CC3)ncc2-c2ccc(F)cc2)cc1` [Example 24, 4-{2-[(3aR,8aS)-decahydropyrrolo[3,4-d]azepin-6-yl]-5-(4-fluorophenyl)pyrimidin-4-yl}benzonitrile] the pIC50 was > 7.00. With `Cc1ccc(-c2cnc(NC3CCCNC3)nc2-c2ccc(C#N)cc2)cc1` (racemic) [Example 29, (±)-4-[5-(4-methylphenyl)-2-[(piperidin-3-yl)amino]pyrimidin-4-yl]benzonitrile] the pIC50 was > 7.00. In the case of `Cc1ccc(-c2cc(NC[C@H]3[C@@H]4CNC[C@@H]43)nn2-c2ccc(C#N)cc2)cc1` [Example 47, 4-[3-[[(1S,5R)-3-azabicyclo[3.1.0]hexan-6-yl]methylamino]-5-(4-methylphenyl)pyrazol-1-yl]benzonitrile], the pIC50 was > 7.00. `N#Cc1ccc(-c2cc3c(ccn3C[C@H]3CCNC3)nc2-c2ccc(F)cc2)cc1` [Example 5, 4-[5-(4-fluorophenyl)-1-[[(3S)-pyrrolidin-3-yl]methyl]pyrrolo[3,2-b]pyridin-6-yl]benzonitrile] was tested, and the pIC50 was > 7.00. `Cc1ccc(-c2nc3cnn(CC4CCNCC4)c3cc2-c2ccc(C#N)cc2)cc1` [Example 14, 4-[5-(4-methylphenyl)-1-(piperidin-4-ylmethyl)pyrazolo[4,3-b]pyridin-6-yl]benzonitrile] was tested, and the pIC50 was > 7.00. For `Cc1ccc(-c2cnc(NCC3(F)CCNC3)nc2-c2ccc(C#N)cc2)cc1` (racemic) [Example 28, (±)-4-(2-{[(3-fluoropyrrolidin-3-yl)methyl]amino}-5-(4-methylphenyl)pyrimidin-4-yl)benzonitrile], the pIC50 was > 7.00. In the case of `Cc1ccc(-c2nc3ccn(C[C@@H]4CCNC4)c3cc2-c2ccc(C#N)cc2)cc1` [Example 1, 4-[5-(4-methylphenyl)-1-[[(3R)-pyrrolidin-3-yl]methyl]pyrrolo[3,2-b]pyridin-6-yl]benzonitrile], the pIC50 was > 7.00. `Cc1ccc(-c2nc3cnn(C[C@H]4[C@@H]5CNC[C@@H]54)c3cc2-c2ccc(C#N)cc2)cc1` [Example 15, 4-[1-[[(1S,5R)-3-azabicyclo[3.1.0]hexan-6-yl]methyl]-5-(4-methylphenyl)pyrazolo[4,3-b]pyridin-6-yl]benzonitrile] was tested, and the pIC50 was > 7.00. `Cc1ccc(-c2cnc(N3CCC4(CCNC4)C3)nc2-c2ccc(C#N)cc2)cc1` (stereo not shown) [Example 35, 4-(2-{2,7-diazaspiro[4.4]nonan-2-yl}-5-(4-methylphenyl)pyrimidin-4-yl)benzonitrile] was tested, and the pIC50 was > 7.00. For `Cc1ccc(-c2nc3cnn(CC4CCNC4)c3cc2-c2ccc(C#N)cc2)cc1` (stereo not shown) [Example 13, 4-[5-(4-methylphenyl)-1-(pyrrolidin-3-ylmethyl)pyrazolo[4,3-b]pyridin-6-yl]benzonitrile], the pIC50 was > 7.00. `Cc1ccc(-c2cnc(N3CCC4(CCNC4)CC3)nc2-c2ccc(C#N)cc2)cc1` [Example 39, 4-(2-{2,8-diazaspiro[4.5]decan-8-yl}-5-(4-methylphenyl)pyrimidin-4-yl)benzonitrile] was tested, and the pIC50 was > 7.00. For `Cc1ccc(-c2cnc(N3CCC4CNCC4C3)nc2-c2ccc(C#N)cc2)cc1` (stereo not shown) [Example 22, 4-[5-(4-methylphenyl)-2-{octahydro-1H-pyrrolo[3,4-c]pyridin-5-yl}pyrimidin-4-yl]benzonitrile], the pIC50 was > 7.00. In the case of `Cc1ccc(-c2cc(NCC3CCNCC3)nn2-c2ccc(C#N)cc2)cc1` [Example 46, 4-[5-(4-methylphenyl)-3-(piperidin-4-ylmethylamino)pyrazol-1-yl]benzonitrile], the pIC50 was > 7.00. In the case of `N#Cc1ccc(-c2cc3c(ccn3C[C@H]3CCNC3)nc2N2CCOCC2)cc1` [Example 7, 4-[5-morpholin-4-yl-1-[[(3S)-pyrrolidin-3-yl]methyl]pyrrolo[3,2-b]pyridin-6-yl]benzonitrile], the pIC50 was > 7.00. With `N#Cc1ccc(-c2nc(NC[C@H]3CCNC3)ncc2-c2ccc(C(F)(F)F)cc2)cc1` [Example 25, 4-(2-{[(3S)-pyrrolidin-3-ylmethyl]amino}-5-[4-(trifluoromethyl)phenyl]pyrimidin-4-yl)benzonitrile] the pIC50 was > 7.00. For `Cc1ccc(-c2nc3ccn(CCCN)c3cc2-c2ccc(C#N)cc2)cc1` [Example 12, 4-[1-(3-aminopropyl)-5-(4-methylphenyl)pyrrolo[3,2-b]pyridine-6-yl]benzonitrile], the pIC50 was > 7.00. `Cc1ccc(-c2cnc(N3CCC4(CCNCC4)C3)nc2-c2ccc(C#N)cc2)cc1` [Example 36, 4-(2-{2,8-diazaspiro[4.5]decan-2-yl}-5-(4-methylphenyl)pyrimidin-4-yl)benzonitrile] was tested, and the pIC50 was > 7.00. For `Cc1ccc(-c2cnc(OC[C@@H]3CCNC3)nc2-c2ccc(C#N)cc2)cc1` [Example 20, 4-[5-(4-methylphenyl)-2-[(3R)-pyrrolidin-3-ylmethoxy]pyrimidin-4-yl]benzonitrile], the pIC50 was > 7.00. For `Cc1ccc(-c2cnc(NC3CCNCC3)nc2-c2ccc(C#N)cc2)cc1` [Example 30, 4-[5-(4-methylphenyl)-2-[(piperidin-4-yl)amino]pyrimidin-4-yl]benzonitrile], the pIC50 was > 7.00. `N#Cc1ccc(-c2cc3c(ccn3C[C@@H]3CCNC3)nc2Cl)cc1` [Example 2, 4-[5-chloro-1-[[(3R)-pyrrolidin-3-yl]methyl]pyrrolo[3,2-b]pyridin-6-yl]benzonitrile] showed a pIC50 of 6.00 to 7.00. For `N#Cc1ccc(-c2nc(NC[C@H]3CCNC3)ncc2-c2ccc(F)cc2)cc1` [Example 18, 4-[5-(4-fluorophenyl)-2-{[(3S)-pyrrolidin-3-ylmethyl]amino}pyrimidin-4-yl]benzonitrile], the pIC50 was > 7.00. `Cc1ccc(-c2cnc(N3CCC4(CCCN4)CC3)nc2-c2ccc(C#N)cc2)cc1` [Example 40, 4-(2-{1,8-diazaspiro[4.5]decan-8-yl}-5-(4-methylphenyl)pyrimidin-4-yl)benzonitrile] was tested, and the pIC50 was > 7.00.
